Six molecules from US20110046066A1, “INHIBITORS OF IAP” (GENENTECH, INC., priority 2008, published 2011) can be followed below.

The term IC50 denotes the concentration needed to halve the response being measured. What is called Ki is a measure of affinity in units of concentration, obtained from inhibition or displacement.

The target in one assay is T1, C-IAP1 BIR3 (Homo sapiens, UniProt Q13490).
T1 construct: 0.2 μM C-IAP1 BIR3
The experiment in a line: Fluorescence polarization peptide binding assay, C-IAP1 BIR3. As to conditions: for IC50: 0.2 μM C-IAP1 BIR3, 5 nM AVP-diPhe-FAM probe, one hour incubation; for Ki: determined from the IC50 values (procedure of Keating et al.). Here is the method: (§1) Polarization experiments were performed on an Analyst HT 96-384 reader (Molecular Devices Corp.) in order to determine dissociation constants (Kd) between IAP protein BIR domains and the fluorescent probe. Samples for fluorescence polarization affinity experiments were prepared by addition of serial dilutions of IAP BIR domains (C-IAP1 BIR3, C-IAP-2 BIR3, ML/X-IAP chimera MLXBIR3SG and X-IAP BIR3) in polarization buffer (50 mM Tris [pH 7.2], 120 mM NaCl, 1% bovine globulins 5 mM DTT and 0.05% octylglucoside) to 5-carboxyflourescein-conjugated AVPdi-Phe-NH2 (AVP-diPhe-FAM) at 5 nM final concentration.
(§2) The reactions were read after an incubation time of 1 hour at room temperature with standard cut-off filters for the fluorescein fluorophore (λex=485 nm; λem=530 nm) in 384-well black plates (Molecular Devices Corp.). Fluorescence polarization values were plotted as a function of the protein concentration, and the effective concentration 50 (EC50) values were obtained by fitting the data to a 4-parameter equation using Kaleidagraph software (Synergy software, Reading, Pa.). The apparent Kd values were determined from the EC50 values. Inhibition Constants (Ki values) for the antagonists were determined by the addition of 0.06 μM MLXBIR3SG, 0.5 μM X-IAP BIR3, 0.2 μM C-IAP1 BIR3 or 0.4 μM C-IAP-2 BIR3 to wells containing 5 nM of the AVP-diPhe-FAM probe as well as 1:3 serial dilutions of antagonist compounds starting at a concentration of 200 μM in the polarization buffer. Samples were read after an incubation time of one hour. Fluorescence polarization values were plotted as a function of the antagonist concentration, and the IC50 values were obtained by fitting the data to a 4-parameter equation using Kaleidagraph software (Synergy software, Reading, Pa.). Ki values for the antagonists were determined from the IC50 values according to the procedure of Keating, S. M., Marsters, J, Beresini, M., Ladner, C., Zioncheck, K., Clark, K., Arellano, F., and Bodary, S. (2000) in Proceedings of SPIE: In Vitro Diagnostic Instrumentation (Cohn, G. E., Ed.) pp 128-137, Bellingham, Wash. […] All values are micromolar.

The target of assay [1] is T2, ML/X-IAP chimera MLXBIR3SG (Homo sapiens, UniProt Q96CA5, S150G).
T2 sequence (Q96CA5 with tags, fused parts or gaps S150G): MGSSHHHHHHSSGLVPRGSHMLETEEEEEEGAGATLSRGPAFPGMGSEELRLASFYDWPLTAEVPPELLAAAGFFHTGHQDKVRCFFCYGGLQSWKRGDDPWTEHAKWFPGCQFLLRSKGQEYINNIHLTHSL
The experiment in a line: Fluorescence polarization peptide binding assay, MLXBIR3SG. As to conditions: for IC50: 0.06 μM MLXBIR3SG, 5 nM AVP-diPhe-FAM probe, one hour incubation; for Ki: determined from the IC50 values (procedure of Keating et al.). Here is the method:
The following fluorescence polarization experiments used a chimeric BIR domain referred to as MLXBIR3SG in which 11 of 110 residues correspond to those found in XIAP BIR3, while the remainder correspond to ML-IAP BIR. […] The improved caspase-9 inhibition of the chimeric BIR domain MLXBIR3SG has been correlated with increased inhibition of doxorubicin-induced apoptosis when transfected into MCF7 cells.
as §1, §2

The next assay deals with T3, X-IAP BIR3 (Homo sapiens, UniProt P98170).
T3 construct: 0.5 μM X-IAP BIR3
The experiment in a line: Fluorescence polarization peptide binding assay, X-IAP BIR3. The note with it: for IC50: 0.5 μM X-IAP BIR3, 5 nM AVP-diPhe-FAM probe, one hour incubation; for Ki: determined from the IC50 values (procedure of Keating et al.). The method, then: as §1, §2
For orientation: Polarisation of emitted light reports the rotation of a fluorescent probe.

The next assay deals with T4, C-IAP2 BIR3 (Homo sapiens, UniProt Q13489).
T4 construct: 0.4 μM C-IAP-2 BIR3
The experiment in a line: Fluorescence polarization peptide binding assay, C-IAP2 BIR3. As to conditions: for IC50: 0.4 μM C-IAP-2 BIR3, 5 nM AVP-diPhe-FAM probe, one hour incubation; for Ki: determined from the IC50 values (procedure of Keating et al.). The method, then:
as §1, §2

T3 sequence (P98170 241-356 limits assumed): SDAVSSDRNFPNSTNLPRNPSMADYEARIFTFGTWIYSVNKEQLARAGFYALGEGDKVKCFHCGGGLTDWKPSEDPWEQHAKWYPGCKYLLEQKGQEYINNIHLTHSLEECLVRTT
T4 sequence (Q13489 238-349 limits assumed): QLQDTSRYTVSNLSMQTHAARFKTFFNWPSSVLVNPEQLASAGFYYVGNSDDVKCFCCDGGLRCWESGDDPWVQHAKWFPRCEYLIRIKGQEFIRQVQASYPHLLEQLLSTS
T1 sequence (Q13490 253-363 limits assumed): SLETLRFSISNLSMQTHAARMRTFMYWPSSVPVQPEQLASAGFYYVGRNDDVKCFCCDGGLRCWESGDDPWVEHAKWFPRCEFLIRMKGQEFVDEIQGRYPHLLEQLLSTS

As for `CN[C@@H](C)C(=O)N[C@H](C(=O)N[C@H](C(=O)Nc1snnc1-c1ccccc1)C(C)(C)SCc1ccc(OC)cc1)C1CCCCC1` [Compound 19], the half-maximal inhibitory concentration (IC50) on C-IAP1 BIR3 was 289 nM; in assay [1], 543 nM; at X-IAP BIR3, around 100000 nM; at C-IAP2 BIR3 it was 341 nM. For the same molecule, the inhibitory constant (Ki) on C-IAP1 BIR3 is 45 nM; in assay [1], 124 nM; at X-IAP BIR3, 17800 nM; on C-IAP2 BIR3, 74 nM.

As for `CN[C@@H](C)C(=O)N[C@H](C(=O)N[C@H](C(=O)Nc1snnc1-c1ccccc1)C(C)(C)SC)C1CCCCC1` [Compound 20, (R)-2-((S)-2-cyclohexyl-2-((S)-2-(methylamino)propanamido)-acetamido)-3-methyl-3-(methylthio)-N-(4-phenyl-1,2,3-thiadiazol-5-yl)butanamide], the half-inhibitory concentration (IC50) amounted to 133 nM at C-IAP1 BIR3, 249 nM in assay [1], 21700 nM on X-IAP BIR3 and 202 nM on C-IAP2 BIR3. The Ki at C-IAP1 BIR3 stood at 21 nM; in assay [1], 57 nM; on X-IAP BIR3, 3870 nM; at C-IAP2 BIR3, 44 nM.

For `CN[C@@H](C)C(=O)N[C@H](C(=O)N[C@H](C(=O)Nc1snnc1-c1ccccc1)C(C)(C)SCNC(C)=O)C1CCCCC1` [Compound 21], the IC50 on C-IAP1 BIR3 was 202 nM; in assay [1], 407 nM; at X-IAP BIR3, 22400 nM; on C-IAP2 BIR3, 342 nM. Moreover, the inhibition constant Ki was 31 nM at C-IAP1 BIR3, 93 nM in assay [1], 3990 nM at X-IAP BIR3 and 74 nM on C-IAP2 BIR3.

Turning to `CN[C@@H](C)C(=O)N[C@H](C(=O)N[C@H](c1nc(-c2ccc(F)c3ccccc23)cs1)C(C)(C)SCc1ccc(OC)cc1)C1CCCCC1` [Compound 22], the IC50 is 2290 nM on C-IAP1 BIR3, 8880 nM in assay [1], above 200000 nM on X-IAP BIR3 and 2450 nM on C-IAP2 BIR3. The Ki on C-IAP1 BIR3 was 354 nM; in assay [1], 2020 nM; on X-IAP BIR3, above 35000 nM; at C-IAP2 BIR3 it was 530 nM.

`CN[C@@H](C)C(=O)N[C@H](C(=O)N(C)[C@H](C(=O)Nc1snnc1-c1ccccc1)C(C)(C)SC)C1CCCCC1` [Compound 23]: the half-inhibitory concentration (IC50) at C-IAP1 BIR3 amounted to 155 nM; in assay [1], 304 nM; on X-IAP BIR3, 14000 nM; at C-IAP2 BIR3 it was 276 nM. Besides, the Ki came out at 24 nM at C-IAP1 BIR3, 69 nM in assay [1], 2490 nM at X-IAP BIR3 and 60 nM on C-IAP2 BIR3.

Regarding `CN[C@@H](C)C(=O)N[C@H](C(=O)N(C)[C@H](C(=O)Nc1snnc1-c1ccccc1)C(C)(C)C)C1CCCCC1` [Compound 24, (S)-2-((S)-2-cyclohexyl-N-methyl-2-((S)-2-(methylamino)propan-amido)acetamido)-3,3-dimethyl-N-(4-phenyl-1,2,3-thiadiazol-5-yl)butanamide], the half-maximal inhibitory concentration (IC50) at C-IAP1 BIR3 is 1320 nM; in assay [1] it was 4080 nM; on X-IAP BIR3, above 200000 nM; at C-IAP2 BIR3, 1320 nM. In addition, the Ki was 205 nM on C-IAP1 BIR3, 929 nM in assay [1], above 35000 nM at X-IAP BIR3 and 285 nM on C-IAP2 BIR3.
